Test results reported in patent US9034866B2 (Genentech, Inc., priority 2012, dated 2015).
Read-outs that look alike come from different tables or passages of the source.

Experiments:
[1] = system: p52 (NF-kB2) nuclear translocation in HeLa cells; assay: p52 nuclear translocation assay (non-classical NF-kB signaling), high content imaging; type: cell-based; settings: 100 ng/mL anti-lymphotoxin beta receptor antibody for 5 hours, read-out: p52 HeLa Transloc Assay (IC50)
Summary of the method: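 HeLa cells in 10% FBS medium were treated with compound (0.2% DMSO final), then stimulated 5 h with 100 ng/mL anti-lymphotoxin beta receptor antibody. After fixation, cells were immunostained for p52 (2 ug/mL antibody) with DRAQ5 nuclear stain and imaged by high-content imaging. IC50 in µM was derived from the nuclear/cytoplasmic signal ratio.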

[2] = system: REL-A (p65) nuclear translocation in HeLa cells; assay: REL-A nuclear translocation assay (classical NF-kB signaling), high content imaging; type: cell-based; settings: compounds 4.5 hours, then 10 ng/mL TNF-α for 30 minutes, read-out: REL-A HeLa Transloc Assay (IC50)
Summary of the method: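 HeLa cells in 10% FBS medium preincubated with compounds (0.2% DMSO final) for 4.5 hours, then stimulated with 10 ng/mL TNF-α for 30 minutes. Fixed cells stained with 400 ng/mL anti-REL-A antibody, Alexa488 secondary and DRAQ5; translocation quantified by imaging as nuclear to cytoplasmic signal ratio.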

[3] = target: nuclear factor-kappa B (NF-kB)-inducing kinase (NIK) (Homo sapiens (Human), UniProt Q99558); assay: NIK Enzyme Inhibition Assay (Transcreener ADP fluorescence polarization); type: biochemical; settings: read-out: NIK ADP-FP (Ki uM)
nuclear factor-kappa B (NF-kB)-inducing kinase (NIK), sequence (Q99558 whole entry): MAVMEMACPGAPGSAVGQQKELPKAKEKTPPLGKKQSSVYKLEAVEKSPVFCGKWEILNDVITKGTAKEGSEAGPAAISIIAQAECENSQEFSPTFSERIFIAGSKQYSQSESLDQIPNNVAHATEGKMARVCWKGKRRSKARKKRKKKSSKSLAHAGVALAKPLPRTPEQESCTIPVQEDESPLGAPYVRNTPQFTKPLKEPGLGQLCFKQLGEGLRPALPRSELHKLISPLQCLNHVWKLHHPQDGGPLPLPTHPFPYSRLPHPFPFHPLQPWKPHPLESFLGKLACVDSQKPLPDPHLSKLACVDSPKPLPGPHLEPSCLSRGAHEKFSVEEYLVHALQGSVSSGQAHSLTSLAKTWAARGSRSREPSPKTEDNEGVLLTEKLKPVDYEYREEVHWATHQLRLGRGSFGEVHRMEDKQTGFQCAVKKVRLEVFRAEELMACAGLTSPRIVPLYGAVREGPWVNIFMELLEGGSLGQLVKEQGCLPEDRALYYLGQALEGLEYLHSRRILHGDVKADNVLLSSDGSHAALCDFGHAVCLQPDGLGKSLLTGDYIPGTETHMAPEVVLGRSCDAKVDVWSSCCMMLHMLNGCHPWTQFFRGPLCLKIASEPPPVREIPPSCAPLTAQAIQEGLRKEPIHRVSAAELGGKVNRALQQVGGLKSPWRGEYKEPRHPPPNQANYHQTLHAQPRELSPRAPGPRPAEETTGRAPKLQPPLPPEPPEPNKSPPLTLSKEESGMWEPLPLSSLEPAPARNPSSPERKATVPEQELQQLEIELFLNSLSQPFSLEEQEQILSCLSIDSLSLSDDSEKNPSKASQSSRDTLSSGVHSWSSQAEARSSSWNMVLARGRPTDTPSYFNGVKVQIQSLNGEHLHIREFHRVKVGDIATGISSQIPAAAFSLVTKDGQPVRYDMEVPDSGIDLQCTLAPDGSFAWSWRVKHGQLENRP
Summary of the method: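 Baculovirus/insect-cell-expressed NIK (0.2-1 nM) incubated with compounds 1-3.5 h at 10 uM ATP. Buffer: 50 mM HEPES pH 7.2, 10 mM MgCl2, 2 mM DTT, 1% DMSO. ADP detected by Transcreener fluorescence polarization (ADP antibody, AlexaFluor 633 tracer) after EDTA quench.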

[4] = purified NIK 0.2-1 nM, 10 uM ATP, Morrison's quadratic equation

SMILES | IC50 ([1]; Homo sapiens, HeLa, 5 h) [µM] | IC50 ([2]; Homo sapiens, HeLa) [µM] | Ki [3, 4] [µM] | IC50 [1] [µM] | IC50 [2] [µM] | Ki [3] [µM]
Cc1cc([C@](C)(O)C#Cc2cc3c(cc2F)C2CC(C2)n2c-3nc(C(N)=O)c2C(C)(C)O)no1 [Example 326] | 1.2 | 5.6 | 0.0057 | – | – | –
CNC(=O)c1c(C(N)=O)nc2n1C1CC(C1)c1ccc(C#C[C@@](C)(O)c3cc(C)on3)cc1-2 (racemic) | 1.3 | 1.8 | 0.00061 | – | – | –
CC(C)(O)C#Cc1cc2c(cc1F)OCCn1c-2nc(C(N)=O)c1-c1nc(-c2cccnc2)n[nH]1 [Example 172] | 1.2 | > 20 | 0.0004 | – | – | –
CC(C)(O)C#Cc1cc2c(cc1F)C1CC(C1)n1c-2nc(C(N)=O)c1-c1nc(C2CC2)n[nH]1 | 3.6 | > 20 | 0.0013 | – | – | –
Cc1cc(-c2c(C(N)=O)nc3n2CCOc2cc(F)c(C#C[C@@](C)(O)c4noc(C)n4)cc2-3)[nH]n1 | 2.5 | > 20 | 0.0087 | – | – | –
CC(C)(O)C#Cc1ccc2c(c1)-c1nc(C(N)=O)c(-c3nc(C4CC4)n[nH]3)n1CCO2 (racemic) | 0.594 | > 20 | 0.0024 | – | – | –
CN1CCC(O)(C#Cc2cc3c(cc2F)OCCc2sc(C(N)=O)nc2-3)C1=O (stereo not drawn) | 0.45 | > 20 | 0.00053 | – | – | –
CC(C)(O)C#Cc1cc2c(cc1F)C1CC(C1)n1c-2nc(C(N)=O)c1C1CN(C(=O)OC(C)(C)C)C1 (racemic) | 1.8 | > 20 | 0.0077 | – | – | –
Cc1nc2ccccc2n1Cc1c(C(N)=O)nc2n1C1CC(C1)c1ccc(C#C[C@]3(O)CCN(C)C3=O)cc1-2 | 2.9 | > 20 | 0.00087 | – | – | –
CNC(=O)c1c(C(N)=O)nc2n1C1CC(C1)c1cc(F)c(C#CC3(O)CCCC3)cc1-2 | 0.375 | > 20 | 0.00012 | – | – | –
NC(=O)c1cn2c(n1)-c1cc(C#CC3(O)CCNC3=O)c(F)cc1OCC2 (racemic) | 16 | > 20 | 0.0032 | – | – | –
CNC(=O)c1c(C(N)=O)nc2n1CCOc1ccc(C#CC(C)(O)c3ccccn3)cc1-2 (stereo not drawn) | 1.4 | > 20 | 0.0043 | – | – | –
Cc1cc([C@](C)(O)C#Cc2cc3c(cc2F)C2CC(C2)n2cc(C(N)=O)nc2-3)on1 | 0.675 | > 20 | 0.0024 | – | – | –
CC(C)(O)c1c(C(N)=O)nc2n1C1CC(C1)c1cc(F)c(C#CC3(O)CCCC3)cc1-2 [Example 324, 9-fluoro-10-[2-(1-hydroxycyclopentyl)ethy-nyl]-3-(1-hydroxy-1-methyl-ethyl)-5,6,7,12-tetrahydro-5,7-methanobenzo[c]imi-dazo[1,2-a]azepine-2-carboxamide] | – | – | – | 1.1 | > 20 | 0.0089
CNC(=O)c1c(C(N)=O)nn2c1CCOc1ccc(C#C[C@]3(O)CCN(C)C3=O)cc1-2 (racemic) [Example 514] | 0.543 | > 20 | 0.0012 | – | – | –
CNC(=O)c1c(C(N)=O)nc2n1CCOc1cc(F)c(C#CC(C)(O)c3ccccn3)cc1-2 (stereo not drawn) [Example 180, 9-fluoro-10-[3-hydroxy-3-(2-pyridyl)but-1-ynyl]-N3-methyl-5,6-dihydroimi-dazo[1,2-d][1,4]benzoxazepine-2,3-dicarboxamide] | 0.87 | > 20 | 0.0012 | – | – | –
Cc1cc([C@](C)(O)C#Cc2ccc3c(c2)-c2nc(C(N)=O)cn2CCO3)no1 [Example 8, 9-[(R)-3-Hydroxy-3-(5-methyl-isoxazol-3-yl)-but-1-ynyl]-4,5-dihydro-6-oxa-1,3a-diaza-benzo[e]azulene-2-carboxylic acid amide] | 0.672 | 20 | 0.001 | – | – | –
C[C@@](O)(C#Cc1cc2c(cc1F)C1CC(C1)c1[nH]c(C(N)=O)nc1-2)c1ncccn1 | 1.7 | > 20 | 0.0026 | – | – | –
Cc1nc([C@](C)(O)C#Cc2cc3c(cc2F)C2CC(C2)c2c-3nc(C(N)=O)n2C)no1 | 0.835 | > 20 | 0.0005 | – | – | –
Cc1cc([C@](C)(O)C#Cc2cc3c(cc2F)C2CC(C2)n2c-3nc(C(N)=O)c2-c2cnn(CC(C)(C)O)c2)no1 (racemic) | 1.9 | > 20 | 0.00071 | – | – | –
